Data from patent US10736841B2, “Bepotastine compositions” (BAUSCH & LOMB INCORPORATED, priority 2011, dated 2020).
Read-outs that look alike come from different tables or passages of the source.

Experiments:
[1] = Drug substance description (solubility, hygroscopicity); assay type: physicochemical
Text: Bepotastine besilate is a white to off-white, odorless, crystalline powder. The bepotastine drug substance physiological mode of action is inhibition of histamine H1 receptors to relieve typical symptoms associated with allergic rhinitis. […] Fluticasone propionate is a white to off-white, crystalline synthetic trifluorinated corticosteroid used to treat inflammatory symptoms related to asthma and allergic rhinitis.

[2] = Chemical stability studies at 25° C. and 40° C. in amber glass bottles; assay type: physicochemical
Description: Chemical stability studies were performed to determine if the formulation would likely achieve a commercially practical shelf-life. Studies were performed at 25° C. and 40° C. in moisture impermeable amber glass bottles.

[3] = cited from earlier work
[4] = system: microorganisms; assay: USP 51 Preservative Efficacy Test (overall outcome); assay type: cell-based; details: BAK at a concentration of 0.200 mg/mL
Text: The term “preservative efficacy” or “preservative effectiveness” or “antimicrobial efficacy”, as used herein, means that the composition satisfies USP standards as defined in protocol <51> p. 1681, United States Pharmacopeia, 1995: Antimicrobial effectiveness testing; The United States Pharmacopeia, 32nd rev ed., and the National Formulary, 27th ed. Rockville, Md.: USPC; 2009. For example, the preservative is effective in the product examined if (a) the concentrations of viable bacteria are reduced to not more than 0.1% of the initial concentrations by the fourteenth day; (b) the concentrations of viable yeasts and molds remain at or below the initial concentrations during the first 14 days; and (c) the concentration of each test microorganism remains at or below these designated levels during the remainder of the 28-day test period. Similar criteria are defined for BP standards (Efficacy of Antimicrobial Preservation, Appendix XVI C, 1995), and PhEur standards (Efficacy of Antimicrobial Preservation, Chapter VIII. 14, 1992).
The compositions provided herein may include an effective amount of an antimicrobial preservative. Preservatives can be used to inhibit microbial growth (e.g., bacterial or yeast) in the compositions. An “effective amount” of a preservative is that amount necessary to prevent the growth of microorganisms in the composition. […]

In the case of `O=C(O)CCCN1CCC(O[C@@H](c2ccc(Cl)cc2)c2ccccn2)CC1.O=S(=O)(O)c1ccccc1` [Bepotastine besilate, (+)-(S)-4-[4-[(4-chlorophenyl)(2-pyridyl)methoxy]piperidino]butyric acid], the hygroscopicity ([1]; drug substance powder) is reported as “non-hygroscopic” and the “dissolution in the nasal spray formulation vehicle” value ([1]; nasal spray formulation vehicle) is reported as “dissolves readily”.

With `O=C(O)CCCN1CCC(O[C@@H](c2ccc(Cl)cc2)c2ccccn2)CC1` [Bepotastine, (+)-(S)-4-[4-[(4-chlorophenyl)(2-pyridyl)methoxy]piperidino]butyric acid] the “impurities found during stability evaluation” value [2] was “only impurity found was the ethyl ester precursor of bepotastine”.

For `CCC(=O)O[C@]1(C(=O)SCF)[C@H](C)C[C@H]2[C@@H]3C[C@H](F)C4=CC(=O)C=C[C@]4(C)[C@@]3(F)[C@@H](O)C[C@@]21C` [fluticasone propionate, Fluticasone propionate], the solubility in water [3] is listed as “practically insoluble” and the solubility in water ([3]; listed as fluticasone) is listed as “insoluble”.

For benzalkonium chloride [BAK], the effectiveness as preservative [4] was “effective preservative”.
